Assay [1] addresses T1, human muscarinic M1 receptor (Homo sapiens, UniProt P11229).
T1 sequence (P11229 1-460): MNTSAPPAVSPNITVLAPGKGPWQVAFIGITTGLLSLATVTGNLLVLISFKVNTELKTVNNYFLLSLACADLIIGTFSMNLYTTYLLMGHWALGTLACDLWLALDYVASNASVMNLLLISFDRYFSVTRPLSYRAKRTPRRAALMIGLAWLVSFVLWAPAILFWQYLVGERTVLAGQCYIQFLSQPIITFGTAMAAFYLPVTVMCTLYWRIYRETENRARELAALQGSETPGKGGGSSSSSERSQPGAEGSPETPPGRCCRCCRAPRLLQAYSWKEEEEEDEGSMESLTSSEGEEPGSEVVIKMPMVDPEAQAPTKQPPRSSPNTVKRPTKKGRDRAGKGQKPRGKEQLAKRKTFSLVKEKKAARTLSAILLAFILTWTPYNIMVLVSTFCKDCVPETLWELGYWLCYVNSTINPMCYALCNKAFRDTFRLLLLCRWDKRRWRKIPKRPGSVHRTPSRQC
The experiment in a line: Alphascreen Surefire phospho-ERK1/2 functional assay, M1. In kind it is cell-based. As to conditions: for EC50: read-out: pEC50 M1 (converted); for Emax: CHO. The protocol:
ERK1/2 phosphorylation is a downstream consequence of both Gq/11 and Gi/o protein coupled receptor activation, making it highly suitable for the assessment of M1, M3 (Gq/11 coupled) and M2, M4 receptors (Gi/o coupled), rather than using different assay formats for different receptor subtypes. CHO cells stably expressing the human muscarinic M1, M2, M3 or M4 receptor were plated (25K/well) onto 96-well tissue culture plates in MEM-alpha+10% dialysed FBS. Once adhered, cells were serum-starved overnight. Agonist stimulation was performed by the addition of 5 μL agonist to the cells for 5 min (37° C.). Media was removed and 50 μL of lysis buffer added. After 15 min, a 4 μL sample was transferred to 384-well plate and 7 μL of detection mixture added.

Assay [2] concerns the target T2, human muscarinic M4 receptor (Homo sapiens, UniProt P08173).
T2 construct: expressed in transfected cells
T2 sequence (P08173 1-479): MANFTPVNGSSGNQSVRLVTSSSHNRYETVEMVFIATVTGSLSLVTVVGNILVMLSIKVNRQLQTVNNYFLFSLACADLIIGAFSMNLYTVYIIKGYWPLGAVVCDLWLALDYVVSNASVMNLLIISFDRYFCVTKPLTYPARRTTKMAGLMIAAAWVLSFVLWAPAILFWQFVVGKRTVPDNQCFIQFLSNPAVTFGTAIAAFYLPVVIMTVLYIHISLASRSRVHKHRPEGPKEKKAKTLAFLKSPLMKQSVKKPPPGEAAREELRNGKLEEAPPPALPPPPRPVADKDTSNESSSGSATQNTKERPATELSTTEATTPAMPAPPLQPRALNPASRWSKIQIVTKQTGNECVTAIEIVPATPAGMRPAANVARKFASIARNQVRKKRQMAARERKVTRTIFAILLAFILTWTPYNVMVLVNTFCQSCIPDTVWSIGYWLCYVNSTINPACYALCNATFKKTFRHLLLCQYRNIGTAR
As to the kind of experiment: Alphascreen Surefire phospho-ERK1/2 functional assay, M4. In kind it is cell-based. As to conditions: for EC50: read-out: pEC50 M4 (converted); for Emax: CHO.

[3] abbreviates: CHO cells stably expressing human M1, phospho-ERK1/2.
Setting [4] is: CHO cells stably expressing human M1, phospho-ERK1/2, relative to ACh.
The mark [5] stands for this setting: CHO cells stably expressing human M4, phospho-ERK1/2.
Where [6] appears, read: CHO cells stably expressing human M4, phospho-ERK1/2, relative to ACh.
The mark [7] stands for this setting: read-out: % Emax cf. ACh (M1), CHO cells stably expressing human M1, phospho-ERK1/2, relative to ACh.
The mark [8] stands for this setting: read-out: % Emax cf. ACh (M4), CHO cells stably expressing human M4, phospho-ERK1/2, relative to ACh.

Where two headings read alike, the source gives them in different places. Some results are limits rather than exact numbers.

As for `CCOC(=O)N1CCC2(CC(N3CCC(N(CC4CC4)C(C)=O)CC3)C2)C1` (single isomer, unassigned) [2-20 Isomer 1], the EC50 in assay [1] (setting [3]) was greater than 20000 nM; in assay [2] (setting [5]), 1000 nM. Moreover, in assay [1] (setting [4]), the “% Emax cf. ACh (M1)” value came to 17%. Besides, in assay [2] (setting [6]), the “% Emax cf. ACh (M4)” value is reported as 36%.

As for `CCN(C(C)=O)C1CCN(C2CC3(CCN(C(=O)OC)C3)C2)CC1` (single isomer, unassigned) [2-17 Isomer 2], the values for the EC50 in assay [1] (setting [3]) and in assay [2] (setting [5]) were 1260 nM and 200 nM, respectively. In assay [1] (setting [4]), the “% Emax cf. ACh (M1)” value is reported as 80%. The “% Emax cf. ACh (M4)” value in assay [2] (setting [6]) was found to be 92%.

Turning to `CCOC(=O)N1CCC2(CC(N3CCC(N(C(C)=O)C4CC4)CC3)C2)C1` (single isomer, unassigned) [2-3 Isomer 1], the EC50 in assay [1] (setting [3]) was 2000 nM; in assay [2] (setting [5]), greater than 20000 nM. Moreover, the Emax in assay [1] (setting [7]) was 78%. Besides, the “% Emax cf. ACh (M4)” value in assay [2] (setting [6]) is 13%.

As for `CCOC(=O)N1CCC2(CC(N3CCC(N(CC4(C)COC4)C(C)=O)CC3)C2)C1` (single isomer, unassigned) [2-23 Isomer 2], the EC50 was 1260 nM in assay [1] (setting [3]) and 631 nM in assay [2] (setting [5]). Also, the Emax came to 43% in assay [1] (setting [7]) and 65% in assay [2] (setting [8]).

Turning to `CCOC(=O)N1CCC2(CC(N3CCC(N(CCO)C4CC4)CC3)C2)C1` (single isomer, unassigned) [2-49 Isomer 2], the EC50 in assay [1] (setting [3]) was greater than 20000 nM; in assay [2] (setting [5]), 1260 nM. For the same compound, the values for the Emax in assay [1] (setting [7]) and in assay [2] (setting [8]) were 8% and 78%, respectively.

Take `CCOC(=O)N1CCC2(CC(N3CCC(N(CC(C)C)C(C)=O)CC3)C2)C1` (single isomer, unassigned) [2-19 Isomer 1]: the figures for the EC50 in assay [1] (setting [3]) and in assay [2] (setting [5]) were 1260 nM and 251 nM, respectively. Besides, the “% Emax cf. ACh (M1)” value in assay [1] (setting [4]) amounted to 32%. For the same compound, the “% Emax cf. ACh (M4)” value in assay [2] (setting [6]) is reported as 62%.

Turning to `CCN(C(C)=O)C1CCN(C2CC3(CCN(C(=O)OC)C3)C2)CC1` (single isomer, unassigned) [2-17 Isomer 1], the values for the EC50 in assay [1] (setting [3]) and in assay [2] (setting [5]) were greater than 20000 nM and 1260 nM, respectively. The “% Emax cf. ACh (M1)” value in assay [1] (setting [4]) was found to be 27%. Moreover, the maximal effect (Emax) in assay [2] (setting [8]) is 87%.

Take `CCOC(=O)N1CCC2(CC(N3CCC(N(CC(C)(C)F)C(C)=O)CC3)C2)C1` (single isomer, unassigned) [2-26 Isomer 1]: the values for the EC50 in assay [1] (setting [3]) and in assay [2] (setting [5]) were greater than 20000 nM and 1000 nM, respectively. Moreover, the “% Emax cf. ACh (M1)” value in assay [1] (setting [4]) was determined as 23%. Also, the “% Emax cf. ACh (M4)” value in assay [2] (setting [6]) was determined as 52%.

For the compound `CCOC(=O)N1CCC2(CC(N3CCC(N(CCO)c4ccccc4)CC3)C2)C1` (single isomer, unassigned) [2-58 Isomer 2], the EC50 was 1260 nM in assay [1] (setting [3]) and 251 nM in assay [2] (setting [5]). Also, the maximal response (Emax) in assay [1] (read-out: % Emax cf. ACh (M1)) worked out at 63%; in assay [2] (read-out: % Emax cf. ACh (M4)), 74%.

Regarding `CCOC(=O)N1CCC2(CC(N3CCC(N(CC4(OC)CCC4)C(C)=O)CC3)C2)C1` (single isomer, unassigned) [2-30 Isomer 1], the EC50 in assay [1] (setting [3]) is 1260 nM; in assay [2] (setting [5]), 126 nM. Also, the “% Emax cf. ACh (M1)” value in assay [1] (setting [4]) came to 33%. The “% Emax cf. ACh (M4)” value in assay [2] (setting [6]) came out at 59%.

Take `CCOC(=O)N1CCC2(CC(N3CCC(N(CC)CCS(C)(=O)=O)CC3)C2)C1` (single isomer, unassigned) [2-56 Isomer 2]: the EC50 in assay [1] (setting [3]) was greater than 20000 nM; in assay [2] (setting [5]) it was 1260 nM. The Emax in assay [1] (setting [7]) was found to be 7%; in assay [2] (setting [8]) it was 41%.

Take `CCOC(=O)N1CC2(CC(N3CCC(N(C(C)=O)C4CC4)CC3)C2)C1` [Example 1-1]: the EC50 was 2510 nM in assay [1] (setting [3]) and 316 nM in assay [2] (setting [5]). Moreover, the Emax in assay [1] (setting [7]) amounted to 72%; in assay [2] (setting [8]) it was 77%.

With `CCOC(=O)N1CCC2(CC(N3CCC(N(CC)C(=O)N(C)C)CC3)C2)C1` (single isomer, unassigned) [Example 2-44 Isomer 2], the EC50 in assay [1] (setting [3]) was 2510 nM; in assay [2] (setting [5]) it was 398 nM. The maximum response (Emax) in assay [1] (setting [7]) turned out to be 55%; in assay [2] (setting [8]), 80%.

In the case of `CCOC(=O)N1CCC2(CC(N3CCC(N(CC(C)(C)OC)C(C)=O)CC3)C2)C1` (single isomer, unassigned) [2-29 Isomer 1], the results for the EC50 in assay [1] (setting [3]) and in assay [2] (setting [5]) were greater than 20000 nM and 1260 nM, respectively. In addition, in assay [1] (setting [4]), the “% Emax cf. ACh (M1)” value turned out to be 17%. For the same compound, the “% Emax cf. ACh (M4)” value in assay [2] (setting [6]) is 56%.

For the compound `CCOC(=O)N1CCC2(CC(N3CCC(CN(C(C)=O)C4CC4)CC3)C2)C1` (single isomer, unassigned) [2-12 Isomer 2], the “pEC50 M1” value in assay [1] (setting [3]) was less than 4.7. In addition, the “% Emax cf. ACh (M1)” value in assay [1] (setting [4]) was 6%. Further, in assay [2] (setting [5]), the “pEC50 M4” value was 6.7. Besides, the “% Emax cf. ACh (M4)” value in assay [2] (setting [6]) stood at 41%.

In the case of `CCOC(=O)N1CCC2(CC(N3CCC(N(CC4(C)CCC4)C(C)=O)CC3)C2)C1` (single isomer, unassigned) [2-21 Isomer 1], the EC50 in assay [1] (setting [3]) was 15800 nM; in assay [2] (setting [5]), 316 nM. Further, the “% Emax cf. ACh (M1)” value in assay [1] (setting [4]) is reported as 51%.

`CCOC(=O)N1CC2(CC(N3CCC(N(CC)C(C)=O)CC3)C2)C1` [Example 1-2, Ethyl 6-{4-[acetyl(ethyl)amino]piperidin-1-yl}-2-azaspiro[3.3]heptane-2-carboxylate]: the EC50 in assay [1] (setting [3]) is 6310 nM; in assay [2] (setting [5]), 251 nM. In addition, the Emax in assay [1] (setting [7]) stood at 59%; in assay [2] (setting [8]), 103%.

For the compound `CCOC(=O)N1CCC2(CC(N3CCC(N(CC(F)(F)F)C(C)=O)CC3)C2)C1` (single isomer, unassigned) [2-25 Isomer 2], the results for the EC50 in assay [1] (setting [3]) and in assay [2] (setting [5]) were 3980 nM and 100 nM, respectively. Further, the Emax in assay [1] (setting [7]) is 125%; in assay [2] (setting [8]), 101%.

Regarding `CCOC(=O)N1CCC2(CC(N3CCC(N(Cc4cnco4)C(C)=O)CC3)C2)C1` (single isomer, unassigned) [2-36 Isomer 2], the EC50 in assay [1] (setting [3]) is 2510 nM; in assay [2] (setting [5]), 631 nM. The results for the maximal response (Emax) in assay [1] (setting [7]) and in assay [2] (setting [8]) were 45% and 71%, respectively.

For the compound `COC(=O)N1CCC2(CC(N3CCC(N(C(C)=O)C4CCC4)CC3)C2)C1` (single isomer, unassigned) [2-15 Isomer 2], the EC50 is 501 nM in assay [1] (setting [3]) and 200 nM in assay [2] (setting [5]). The Emax worked out at 117% in assay [1] (setting [7]) and 95% in assay [2] (setting [8]).

`CCOC(=O)N1CCC2(CC(N3CCC(N(Cc4ncco4)C(C)=O)CC3)C2)C1` (single isomer, unassigned) [2-37 Isomer 2]: the figures for the EC50 in assay [1] (setting [3]) and in assay [2] (setting [5]) were 1260 nM and 631 nM, respectively. The Emax turned out to be 26% in assay [1] (setting [7]) and 55% in assay [2] (setting [8]).

With `CCOC(=O)N1CCC2(CC(N3CCC(N(CC(C)(C)F)C(C)=O)CC3)C2)C1` (single isomer, unassigned) [2-26 Isomer 2], the EC50 in assay [1] (setting [3]) was 398 nM; in assay [2] (setting [5]) it was 63.1 nM. For the same compound, the “% Emax cf. ACh (M1)” value in assay [1] (setting [4]) was 109%. In addition, in assay [2] (setting [6]), the “% Emax cf. ACh (M4)” value stood at 114%.

Regarding `CCOC(=O)N1CCC2(CC(N3CCC(N(CC(C)(F)F)C(C)=O)CC3)C2)C1` (single isomer, unassigned) [2-27 Isomer 2], the EC50 in assay [1] (setting [3]) was 631 nM; in assay [2] (setting [5]) it was 79.4 nM. In addition, the figures for the Emax in assay [1] (setting [7]) and in assay [2] (setting [8]) were 108% and 105%, respectively.

As to `CCOC(=O)N1CCC2(CC(N3CCC(N(CC(F)(F)F)C(=O)OCCOC)CC3)C2)C1` (single isomer, unassigned) [2-43 Isomer 2], the EC50 in assay [1] (setting [3]) is 2510 nM; in assay [2] (setting [5]) it was 126 nM. For the same compound, the maximal response (Emax) in assay [1] (setting [7]) amounted to 35%; in assay [2] (setting [8]), 91%.

Source of the values: patent US10167272B2, “Muscarinic agonists” (Heptares Therapeutics Limited, priority 2015, dated 2019).
